From publication PMC12081876, “Identification of PTGR2 inhibitors as a new therapeutic strategy for diabetes and obesity” (EMBO Molecular Medicine, 2025)
Values joined by “and” are separate entries in the source; they are usually repeats but may differ in a detail not shown here. Identical values can stand only once.

Key:
phospho-Akt = assay: Insulin signaling in vivo (phospho-Akt immunoblot); set-up: species or system mouse; settings: 40 mg/kg/day ip, HFHSD-fed mice, vs vehicle
Protocol: To evaluate insulin signaling in vivo, mice were fasted overnight. Tissue was harvested 15 min after intraperitoneal insulin injection. The samples (perigonadal fat, inguinal fat, brown adipose tissue and liver) were extracted with RIPA buffer (50 mM Tris-HCl, pH 7.4, 2 mM ethylenediaminetetraacetic acid [EDTA]), 150 mM NaCl, 50 mM NaF, 1% Nonidet P-40, 1 mM phenylmethylsulfonyl fluoride [PMSF], 0.5% sodium deoxycholate, and 0.1% sodium dodecyl sulfate [SDS]) containing phosphatase inhibitor cocktail (cat. no. 04693132001, Roche) and homogenized. The homogenates were then centrifuged at 13,000 rpm for 10 min at 4 °C to remove debris. Samples were separated by SDS-polyacrylamide gel electrophoresis, transferred to polyvinylidene difluoride (PVDF) membrane, blocked with 3% BSA, and probed with anti-phospho-Akt antibody (cat. no. 4058, Cell Signaling) and anti-Akt antibody (cat. no. 9272, Cell Signaling), and then with HRP conjugated anti-rabbit IgG antibody (1:10,000; cat. no. GTX26721, GeneTex).

Ucp1 = assay: Relative Ucp1 expression in fat depots (RT-qPCR); assay type: in vivo, mouse; settings: 40 mg/kg/day ip, HFHSD-fed mice, vs vehicle
[1] = test system: HFHSD-fed obese C57BL6/J mice; assay: Diet-induced thermogenesis; assay type: in vivo, mouse; settings: for interscapular area temperature, Average: Figure 2S left panel; for interscapular area temperature, Average / inguinal area temperature, Average / rectal temperatures, Average / inguinal area temperature / interscapular area temperature / rectal temperatures: in °C; for inguinal area temperature, Average: Figure 2S middle panel; for rectal temperatures, Average: Figure 2S right panel; for inguinal area temperature / interscapular area temperature / rectal temperatures: Figure 2S, individual mice
Protocol: (§1) For the cold tolerance test, 24-week-old mice with matched average body weight from the two groups were placed individually on HFHSD in a 4 °C chamber. The rectal temperature of the mice was measured after 0, 1, 2, 3, 4, 5, 6, 12, and 18 h. For measuring diet-induced thermogenesis, 24-week-old mice were fasted overnight for 18 h. Then, we measured their rectal temperature at 0, 30, 60, 90, 120, 150, 180, and 240 min after HFHSD refeeding. The rectal and surface temperature were detected by thermal probes (Physitemp Therma TH-5, ThermoWorks, Alpine and MicroTherma 2T, ThermoWorks, Alpine, respectively).

[2] = test system: HFHSD-fed obese C57BL6/J mice; assay: Cold tolerance test (cold-induced thermogenesis); assay type: in vivo, mouse; settings: for interscapular area temperature, Average / interscapular area temperature: Figure 2T left panel; for interscapular area temperature, Average / rectal temperatures, Average: average of 12 mice; for interscapular area temperature, Average / interscapular area temperature / inguinal area temperature / rectal temperatures, Average / rectal temperatures: in °C (unit assumed); for interscapular area temperature / inguinal area temperature / rectal temperatures: individual mice; for inguinal area temperature: Figure 2T middle panel; for rectal temperatures, Average / rectal temperatures: Figure 2T right panel; for temperature, Figure 2T middle panel, Average: in °C
Protocol: as §1

SMILES: CCCCCC(=O)/C=C/[C@H]1[C@H](O)CC(=O)[C@@H]1C/C=C\CCCC(=O)O [15-keto-PGE2, 15-keto-prostaglandin E2]
- phospho-Akt after insulin injection (immunoblot) (phospho-Akt): increased phospho-Akt in perigonadal fat, inguinal fat, brown adipose tissue, and liver
- expression of Ucp1 in fat depots (Ucp1): increased expression of Ucp1 in inguinal, perigonadal, and brown adipose tissues
- interscapular, inguinal and rectal temperatures after HFHSD feeding ([1]; 40 mg/kg/day ip, vs vehicle): higher interscapular, inguinal, and rectal temperatures after HFHSD feeding
- interscapular area temperature, Average ([1]; period 0 min): 36.7067
- interscapular area temperature, Average ([1]; period 30 min): 37.7933
- interscapular area temperature, Average ([1]; period 60 min): 37.6333
- interscapular area temperature, Average ([1]; period 120 min): 37.5133
- interscapular area temperature, Average ([1]; period 180 min): 37.3533
- interscapular area temperature, Average ([1]; period 240 min): 37.1267
- inguinal area temperature, Average ([1]; period 0 min): 35.1463
- inguinal area temperature, Average ([1]; period 30 min): 36.4001
- inguinal area temperature, Average ([1]; period 60 min): 36.234
- inguinal area temperature, Average ([1]; period 120 min): 35.9052
- inguinal area temperature, Average ([1]; period 180 min): 35.7573
- inguinal area temperature, Average ([1]; period 240 min): 35.4703
- rectal temperatures, Average ([1]; period 0 min): 36.6549
- rectal temperatures, Average ([1]; period 30 min): 37.7723
- rectal temperatures, Average ([1]; period 60 min): 37.6257
- rectal temperatures, Average ([1]; period 120 min): 37.398
- rectal temperatures, Average ([1]; period 180 min): 37.3676
- rectal temperatures, Average ([1]; period 240 min): 37.1984
- inguinal area temperature ([1]; period 0 min): 35.4 and 35.2 and 34.79 and 34.8 and 34.56 and 35 and 35.185 and 35.735 and 36 and 34.735 and 35.25 and 35.645 and 34.88 and 34.815
- interscapular area temperature ([1]; period 0 min): 36.9 and 37.4 and 36.4 and 36.8 and 36.6 and 37.8 and 35.4 and 36.2 and 37
- rectal temperatures ([1]; period 0 min): 36.805 and 37.06 and 36.54 and 36.445
- inguinal area temperature ([1]; period 30 min): 36.955 and 36.815 and 36.705 and 36.42 and 36.0964 and 35.905 and 36.6 and 35.865 and 35.975 and 36.115 and 36.825 and 36.785 and 36.43 and 36.095 and 36.415
- interscapular area temperature ([1]; period 30 min): 38.1 and 38.2 and 37.6 and 37.2 and 37.5 and 37.7 and 37.9 and 37.8
- rectal temperatures ([1]; period 30 min): 38.255 and 38.275 and 37.755 and 37.72
- inguinal area temperature ([1]; period 60 min): 36.755 and 36.7 and 36.085 and 36.255 and 36.2 and 35.5 and 35.9 and 35.67 and 36.1 and 36.955 and 36.3 and 36.545 and 36.31 and 35.98
- interscapular area temperature ([1]; period 60 min): 38 and 38.3 and 37.8 and 37.5 and 37.7 and 37.4 and 37.6 and 37.2
- rectal temperatures ([1]; period 60 min): 38.085 and 37.94 and 37.88 and 37.79
- inguinal area temperature ([1]; period 120 min): 36.81 and 36.5 and 36.135 and 35.755 and 36.1679 and 35.38 and 35.6 and 35.29 and 35.4 and 36.16 and 36.2 and 35.9 and 36.075 and 35.355 and 35.85
- interscapular area temperature ([1]; period 120 min): 37.7 and 38.2 and 37.9 and 37.6 and 37.2 and 37.1 and 37.5 and 37.4 and 37.3
- rectal temperatures ([1]; period 120 min): 37.95 and 37.965 and 37.615
- inguinal area temperature ([1]; period 180 min): 36.105 and 36.3 and 36.27 and 35.585 and 35.8 and 35.3 and 35.4 and 35.7 and 36.1 and 35.765 and 35.535
- interscapular area temperature ([1]; period 180 min): 37.5 and 38.4 and 37.6 and 37.4 and 36.5 and 37.2 and 37.1 and 36.9 and 37 and 37.8
- rectal temperatures ([1]; period 180 min): 37.665 and 37.81 and 37.52
- inguinal area temperature ([1]; period 240 min): 35.995 and 36.065 and 35.575 and 35.82 and 35.715 and 35.26 and 35.2 and 35.6 and 36.2 and 35.1 and 35.12 and 34.905
- interscapular area temperature ([1]; period 240 min): 37.1 and 37.5 and 37 and 37.2 and 37.3 and 36.2 and 36.8 and 37.4 and 36.6
- rectal temperatures ([1]; period 240 min): 37.705 and 37.57 and 37.21
- interscapular, inguinal and rectal temperatures during cold test ([2]; 40 mg/kg/day ip, vs vehicle): higher interscapular, inguinal, and rectal temperatures than vehicle controls during prolonged cold tests
- interscapular area temperature, Average ([2]; period 0 hr): 38.275
- interscapular area temperature ([2]; period 0 hr): 37.4 and 37.9 and 38.2 and 38.1 and 38.9
- interscapular area temperature, Average ([2]; period 1 hr): 37.6917
- interscapular area temperature ([2]; period 1 hr): 37.1 and 37.5 and 37.2 and 37.9 and 37.4
- interscapular area temperature, Average ([2]; period 2 hr): 37.3583
- interscapular area temperature ([2]; period 2 hr): 37.4 and 37.2 and 36.9 and 37.8 and 37.6 and 36.4
- interscapular area temperature, Average ([2]; period 3 hr): 37.0083
- interscapular area temperature ([2]; period 3 hr): 37.2 and 37.1 and 36.5 and 37.3 and 37.5 and 36.4
- interscapular area temperature, Average ([2]; period 4 hr): 37.0083
- interscapular area temperature ([2]; period 4 hr): 37 and 36.8 and 37.6 and 37.3 and 36.2
- interscapular area temperature, Average ([2]; period 5 hr): 36.8917
- interscapular area temperature ([2]; period 5 hr): 36.5 and 37 and 36.7 and 36.9 and 37.1
- interscapular area temperature, Average ([2]; period 6 hr): 36.7583
- interscapular area temperature ([2]; period 6 hr): 36.2 and 36.3 and 36.9 and 37.9 and 37
- interscapular area temperature, Average ([2]; period 12 hr): 35.6833
- interscapular area temperature ([2]; period 12 hr): 36.2 and 37.5 and 34.9 and 35.7 and 35.4
- interscapular area temperature, Average ([2]; period 18 hr): 34.8333
- interscapular area temperature ([2]; period 18 hr): 36.3 and 35.5 and 33.6 and 33.9 and 35.7
- inguinal area temperature ([2]; period 0 hr): 36.2 and 36.9 and 37.2
- inguinal area temperature ([2]; period 1 hr): 36.2 and 36.8
- inguinal area temperature ([2]; period 2 hr): 35.8 and 34.9
- inguinal area temperature ([2]; period 3 hr): 35.5 and 34.7
- inguinal area temperature ([2]; period 4 hr): 35 and 34.8
- inguinal area temperature ([2]; period 5 hr): 34.9 and 34.7
- inguinal area temperature ([2]; period 6 hr): 35.2 and 34.9
- inguinal area temperature ([2]; period 12 hr): 32.9 and 34.1
- inguinal area temperature ([2]; period 18 hr): 33.2 and 33.7
- rectal temperatures, Average ([2]; period 0 hr): 37.9667
- rectal temperatures ([2]; period 0 hr): 37.6 and 38.1 and 38.5 and 37.9 and 36.3 and 38.3 and 38
- rectal temperatures, Average ([2]; period 1 hr): 37.1667
- rectal temperatures ([2]; period 1 hr): 37 and 37.2 and 37.1 and 37.3 and 36.6 and 37.4 and 37.8 and 37.6
- rectal temperatures, Average ([2]; period 2 hr): 36.6917
- rectal temperatures ([2]; period 2 hr): 37.4 and 35.2 and 36.3 and 37 and 37.2 and 36.8 and 36.6 and 36.9 and 36.1 and 36.4
- rectal temperatures, Average ([2]; period 3 hr): 36.45
- rectal temperatures ([2]; period 3 hr): 36.7 and 36 and 36.6 and 36.9 and 35.8 and 37.5 and 36.3 and 36.2 and 36.1 and 36.4
- rectal temperatures, Average ([2]; period 4 hr): 36.45
- rectal temperatures ([2]; period 4 hr): 37 and 36.2 and 36.8 and 37.2 and 36.7 and 36 and 35.7 and 36.4
- rectal temperatures, Average ([2]; period 5 hr): 36.4167
- rectal temperatures ([2]; period 5 hr): 37.6 and 36.4 and 36.3 and 36.1 and 36.5 and 36.7 and 35.8 and 36.2
- rectal temperatures, Average ([2]; period 6 hr): 36.4167
- rectal temperatures ([2]; period 6 hr): 36.8 and 36.6 and 36.4 and 35.6 and 37.3 and 36.1 and 36 and 35.5
- rectal temperatures, Average ([2]; period 12 hr): 35.6917
- rectal temperatures ([2]; period 12 hr): 35.9 and 37.5 and 34.2 and 35.3 and 37.6 and 34.5 and 35.2 and 36.3 and 37.9
- rectal temperatures, Average ([2]; period 18 hr): 34.025
- rectal temperatures ([2]; period 18 hr): 35.7 and 34.9 and 33 and 33.1 and 34.8 and 34.6 and 32 and 34.5 and 33.4 and 33.6 and 34.2
- temperature, Figure 2T middle panel, Average ([2]; time 0): 36.2
- temperature, Figure 2T middle panel, Average ([2]; time 1): 36.0083
- temperature, Figure 2T middle panel, Average ([2]; time 2): 35.325
- temperature, Figure 2T middle panel, Average ([2]; time 3): 35.0083
- temperature, Figure 2T middle panel, Average ([2]; time 4): 34.8083
- temperature, Figure 2T middle panel, Average ([2]; time 5): 34.6417
- temperature, Figure 2T middle panel, Average ([2]; time 6): 34.6417
- temperature, Figure 2T middle panel, Average ([2]; time 12): 34.375
- temperature, Figure 2T middle panel, Average ([2]; time 18): 33.2583
